Source: ChEMBL document CHEMBL4052759, “Discovery of DS79182026: A potent orally active hepcidin production inhibitor” (Bioorg Med Chem Lett, 2017)

system: HepG2; experiment: Inhibition of human recombinant BMP6-stimulated hepcidin mRNA expression in human HepG2 cells after 6 hrs by qRT-PCR analysis; type: functional, cell-based; conditions: HepG2, 6 h

Row | Structure (SMILES) | IC50 [nM]
1 | COC(=O)Nc1noc2cc(-c3c(-c4ccccc4)n[nH]c3C)ccc12 | 540
2 | COC(=O)Nc1noc2cc(-c3c(C(C)C)n[nH]c3C)ccc12 | 910
3 | CCNC(=O)Nc1noc2cc(-c3c(C4CC4)n[nH]c3C)ccc12 | 720
4 | COCc1n[nH]c(C)c1-c1ccc2c(NC(=O)OC)noc2c1 | 1100
5 | O=C(Nc1n[nH]c2cc(-c3cnc4[nH]ccc4c3)ccc12)C1CC1 | 11000
6 | CNC(=O)c1n[nH]c(C)c1-c1ccc2c(NC(=O)OC)noc2c1 | 4400
7 | COC(=O)Nc1noc2cc(-c3c(C4CC4)n[nH]c3C)ccc12 | 210
8 | COC(=O)Nc1noc2cc(-c3c(-c4cccc(OC)n4)n[nH]c3C)ccc12 | 400
9 | COC(=O)Nc1noc2cc(-c3c(-c4cccc(C(C)C)n4)n[nH]c3C)ccc12 | 2600
10 | COC(=O)Nc1noc2cc(-c3c(-c4cnccn4)n[nH]c3C)ccc12 | 210
11 | O=C(Nc1n[nH]c2cc(-c3ccc(O)cc3)ccc12)C1CC1 | 400
12 | COC(=O)Nc1noc2cc(-c3c(-c4ncccc4C)n[nH]c3C)ccc12 | 4800
13 | O=C(Nc1n[nH]c2cc(-c3ccc4[nH]cnc4c3)ccc12)C1CC1 | > 3000
14 | COC(=O)Nc1noc2cc(-c3c(C(C)O)n[nH]c3C)ccc12 (centres undefined) | 1200
15 | COC(=O)Nc1noc2cc(-c3c(-c4ccncn4)n[nH]c3C)ccc12 | 2900
16 | Cc1n[nH]c(C)c1-c1ccc2c(NC(=O)c3ccc(OCCN4CCCCC4)cc3)n[nH]c2c1 | 260
17 | COC(=O)Nc1noc2cc(-c3c(C(=O)OC)n[nH]c3C)ccc12 | 2900
18 | Cc1n[nH]c(C)c1-c1ccc2c(NC(=O)C3CC3)n[nH]c2c1 | 330

Row | Structure (SMILES) | IC50 [nM]
19 | Cc1noc(C)c1-c1ccc2c(NC(=O)C3CC3)n[nH]c2c1 | 1000
20 | Cc1[nH]nc(-c2ccccn2)c1-c1ccc2c(NC(=O)OC(C)C)noc2c1 | 160
21 | Cc1[nH]nc(C2CC2)c1-c1ccc2c(N)noc2c1 | 1400
22 | COC(=O)Nc1noc2cc(-c3c(C)n[nH]c3C)ccc12 | 580
23 | COC(=O)Nc1noc2cc(-c3c(-c4cc(C)ccn4)n[nH]c3C)ccc12 | 2600
24 | O=C1Cc2cc(-c3ccc4c(NC(=O)C5CC5)n[nH]c4c3)ccc2N1 | > 30000
25 | CCc1n[nH]c(C)c1-c1ccc2c(NC(=O)OC)noc2c1 | 460
26 | COCCOC(=O)Nc1noc2cc(-c3c(-c4ccccn4)n[nH]c3C)ccc12 | 69
27 | O=C(Nc1n[nH]c2cc(-c3cc[nH]c3)ccc12)C1CC1 | > 30000
28 | CCOC(=O)Nc1noc2cc(-c3c(-c4ccccn4)n[nH]c3C)ccc12 | 40
29 | COC(=O)Nc1noc2cc(-c3c(C(C)(C)C)n[nH]c3C)ccc12 | > 10000
30 | Cc1[nH]nc(C2CC2)c1-c1ccc2c(NC(=O)C3CC3)n[nH]c2c1 | 82
31 | COC(=O)Nc1noc2cc(-c3c(-c4cccc(C)n4)n[nH]c3C)ccc12 | 42
32 | Cc1[nH]nc(-c2ccccn2)c1-c1ccc2c(NC(=O)OCCF)noc2c1 | 47
33 | O=C(Nc1n[nH]c2cc(-c3ccc(O)cc3)ccc12)c1ccc(OCCN2CCOCC2)cc1 | 130
34 | COC(=O)Nc1noc2cc(-c3c(-c4cccnn4)n[nH]c3C)ccc12 | 350
35 | O=C(Nc1n[nH]c2cc(-c3ccncc3)ccc12)C1CC1 | 7200

system: not listed separately; experiment: Tmax in C57BL/6J mouse at 30 mg/kg, po by LC-MS/MS analysis; type: ADME, organism-based; conditions: in vivo

Row | Structure (SMILES) | Tmax [h]
36 | O=C(Nc1n[nH]c2cc(-c3ccc(O)cc3)ccc12)c1ccc(OCCN2CCOCC2)cc1 | 1.5

system: not listed separately; experiment: Metabolic stability in mouse liver microsomes assessed as […] by measuring parent compound remaining at 1 uM after 0.5 hrs by LC-MS/MS analysis; type: ADME; conditions: read-out: Stability

Row | Structure (SMILES) | remaining at 0.5 h, 1 µM [%]
37 | O=C(Nc1n[nH]c2cc(-c3ccc(O)cc3)ccc12)c1ccc(OCCN2CCOCC2)cc1 | 76

system: not listed separately; experiment: AUC in C57BL/6J mouse at 30 mg/kg, po by LC-MS/MS analysis; type: ADME, organism-based; conditions: in vivo

Row | Structure (SMILES) | AUC [ng·h/mL]
38 | O=C(Nc1n[nH]c2cc(-c3ccc(O)cc3)ccc12)c1ccc(OCCN2CCOCC2)cc1 | 890

system: not listed separately; experiment: Cmax in C57BL/6J mouse at 30 mg/kg, po by LC-MS/MS analysis; type: ADME, organism-based; set-up: dose 30 mg/kg, route oral; conditions: in vivo

Row | Structure (SMILES) | Cmax [ng/mL]
39 | O=C(Nc1n[nH]c2cc(-c3ccc(O)cc3)ccc12)c1ccc(OCCN2CCOCC2)cc1 | 320
